SMILES strings stand for the structures. Structures can show the parent of a compound that is named as a salt.

Drawing on US20040024024A1, “Aromatic sulfone hydroxamates and their use as protease inhibitors” (priority 2001, published 2004), this text covers IC50 and Ki for 23 compounds.

What all share (assay type): biochemical
For one assay, the target named is T1, Human recombinant MMP-13 (Homo sapiens, UniProt P45452).
T1 construct: made in house; host or cells: baculovirus / insect cells
Put plainly: In vitro MMP inhibition, IC50 determination (fluorogenic substrate I). The essentials:
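Fluorescence at 415 nm (excitation 328 nm) reports Gly-Leu cleavage of 4 μM quenched methoxycoumarin peptide substrate I. Human recombinant MMP-13, activated by trypsin or APMA, was incubated at room temperature with varied inhibitor concentrations in pH 7.5 Tris/NaCl/CaCl2 buffer; IC50 derived from reduced fluorescence.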

The next assay addresses T2, Human recombinant MMP-2 (Homo sapiens, UniProt P08253).
T2 construct: made in house; host or cells: MMP-2-transfected p2AHT2 cells
T2 sequence (P08253 110-660): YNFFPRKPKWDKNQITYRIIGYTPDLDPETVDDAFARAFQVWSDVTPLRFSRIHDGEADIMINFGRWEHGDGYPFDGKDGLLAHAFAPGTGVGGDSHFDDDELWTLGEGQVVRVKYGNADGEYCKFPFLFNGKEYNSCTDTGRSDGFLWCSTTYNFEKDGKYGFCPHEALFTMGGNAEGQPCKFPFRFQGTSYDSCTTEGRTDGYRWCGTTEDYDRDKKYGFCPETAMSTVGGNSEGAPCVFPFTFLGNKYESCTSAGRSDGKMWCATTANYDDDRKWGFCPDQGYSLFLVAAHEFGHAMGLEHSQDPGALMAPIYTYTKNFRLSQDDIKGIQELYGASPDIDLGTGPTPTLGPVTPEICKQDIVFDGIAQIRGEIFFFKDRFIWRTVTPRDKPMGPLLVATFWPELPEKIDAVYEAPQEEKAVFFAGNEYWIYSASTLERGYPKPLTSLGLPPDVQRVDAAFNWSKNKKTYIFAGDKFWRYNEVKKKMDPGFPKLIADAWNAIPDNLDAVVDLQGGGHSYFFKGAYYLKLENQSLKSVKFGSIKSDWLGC
Briefly: In vitro MMP inhibition, Ki determination (fluorogenic substrate II). The method, then: Several hydroxamates and salts thereof were analyzed in in vitro assays to determine their ability to inhibit the MMP cleavage of peptide substrates. Inhibition (Ki) and IC50 constants were calculated from the assayed hydroxamate-MMP interactions.
Human recombinant MMP-1, MMP-2, MMP-9, MMP-13, and MMP-14 were used in this assay. All enzymes were prepared in Assignee's laboratories following usual laboratory procedures. Protocols for the preparation and use of these enzymes are available in the scientific literature. See, e.g., Enzyme Nomenclature (Academic Press, San Diego, Calif., 1992) (and the citations therein). See also, Frije et al., J. Biol. Chem., 26(24), 16766-73 (1994).
The MMP-2 proenzyme was purified by gelatin Sepharose chromatography from MMP-2-transfected p2AHT2 cells provided by Dr. Gregory Goldberg of Washington University (St. Louis, Mo.).
All MMPs were activated using 4-aminophenylmercuric acetate (“APMA”, Sigma Chemical, St. Louis, Mo.) or trypsin. MMP-9 also was activated using human recombinant MMP-3 (purified in Assignee's laboratory following standard cloning and purification techniques).
Two fluorogenic, methoxycoumarin-containing polypeptide substrates were used in the MMP inhibition assays:
MCA-ArgProLeuGlyLeuDpaAlaArgGluArgNH2 (II)
Here, “Dpa” is 3-(2,4-dinitrophenyl)-L-2,3-diaminopropionyl group, and “MCA” is 7-methoxycoumarin-4-yl acetyl. Substrate (I) was purchased from Baychem (Redwood City, Calif.), and substrate II was prepared Assignee's laboratory. Substrate I was used in the IC50 determination assays, while substrate II was used in the Ki determination assays. In the absence of MMP inhibitory activity, either substrate is cleaved at the Gly-Leu peptide bond. This cleavage separates the highly fluorogenic peptide from the 2,4-dinitrophenyl quencher, thus resulting in increase of fluorescent intensity.
The stock solutions of the assayed hydroxamates (or salts thereof) were prepared in 1% dimethyl sulfoxide (DMSO). These stock solutions were diluted in Buffer A (100 mM Tris-HCl, 100 mM NaCl, 10 mM CaCl2, 0.05% polyoxyethylene 23 lauryl ether, pH 7.5) to obtain solutions with different hydroxamate concentrations, i.e., assay solutions with different concentrations of the assayed MMP inhibitory compound. The experiment controls contained the same amount of Buffer A/DMSO as the assayed sample, but contained no hydroxamate (or salt thereof).
The assays from which the Ki determinations were made were performed as follows. The assayed hydroxamate samples were incubated in separate wells of untreated white polystyrene plates (Nunc Nalgene International, Rochester, N.Y.), and analyzed on a Tecan SpectraFlour Plus plate reader. The excitation wavelength was 330 nm, and the emission wavelength—420 nm. All samples (assayed hydroxamates and controls) were incubated in separate plate wells at room temperature for 1 hr in the presence of 4 μM of MMP substrate (II). In the absence of MMP inhibitory activity, substrate II was cleaved at the Gly-Leu bond resulting in an increase of relative fluorescence. Inhibition was observed as a reduced rate of this increase in relative fluorescence. The various hydroxamates were analyzed using a single low enzyme concentration with a single substrate concentration fixed at or below the Km. This protocol is a modification of method by Knight et al., FEBS Lett., 296(3), 263-266 (1992). Apparent inhibitory constants were determined by non-linear regression of reaction velocity as a function of inhibitor and enzyme concentration using Morrison's equation, as described by Kuzmic, Anal. Biochem. 286, 45-50 (2000). […] Since the substrate concentration was chosen to be at or below the Km, the apparent Ki's from this analysis were reported as Ki's without correction for the influence of substrate.

For a further assay, the target named is T3, Human recombinant MMP-9 (Homo sapiens, UniProt P14780).
T3 construct: made in house; host or cells: MMP-9-transfected HT1080 cells (spent media)
Briefly: In vitro MMP inhibition, IC50 determination (fluorogenic substrate I). The essentials: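 Reduction in fluorescence (328 nm excitation, 415 nm emission) from cleavage of 4 μM quenched peptide substrate I, measured at room temperature against inhibitor concentration, gave IC50. Enzyme: trypsin- or APMA-activated MMP-9 purified from transfected HT1080 medium; buffer 100 mM Tris, 100 mM NaCl, 10 mM CaCl2, pH 7.5.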

Where [1] appears, read: substrate (I) 4 μM, room temperature, values not in parenthesis.
[2] abbreviates: substrate (II) 4 μM, 1 hr room temperature, apparent Ki, values in parenthesis.

T3 sequence (P14780 107-707 limits assumed): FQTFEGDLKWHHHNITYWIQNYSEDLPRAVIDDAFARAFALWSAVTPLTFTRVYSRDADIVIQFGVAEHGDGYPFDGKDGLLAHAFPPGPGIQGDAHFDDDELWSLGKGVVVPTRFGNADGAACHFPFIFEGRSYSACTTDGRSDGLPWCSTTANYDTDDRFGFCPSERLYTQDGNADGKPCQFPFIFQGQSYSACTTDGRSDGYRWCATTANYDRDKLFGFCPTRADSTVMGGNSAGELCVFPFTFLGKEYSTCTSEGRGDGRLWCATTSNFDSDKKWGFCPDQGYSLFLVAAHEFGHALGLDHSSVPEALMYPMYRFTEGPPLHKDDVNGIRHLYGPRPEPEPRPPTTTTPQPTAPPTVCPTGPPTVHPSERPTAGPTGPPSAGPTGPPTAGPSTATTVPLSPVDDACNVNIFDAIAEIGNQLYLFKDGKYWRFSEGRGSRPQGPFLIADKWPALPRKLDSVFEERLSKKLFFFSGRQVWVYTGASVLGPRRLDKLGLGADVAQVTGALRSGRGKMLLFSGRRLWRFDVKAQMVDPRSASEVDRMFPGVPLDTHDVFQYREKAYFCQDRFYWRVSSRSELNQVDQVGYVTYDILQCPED

A word on the IC50: it is the point on the concentration scale where inhibition reaches its midpoint. Consider `O=C(NO)C1(S(=O)(=O)c2ccc(OCCCc3nc(-c4ccc(OC(F)(F)F)cc4)no3)cc2)CCOCC1` [Example 31, tetrahydro-N-hydroxy-4-[[4-[3-[3[4-(trifluoromethoxy)phenyl]-1,2,4-oxadiazol-5-yl]propoxy]phenyl]sulfonyl]-2H-pyran-4-carboxamide], for which the IC50 on Human recombinant MMP-13 (setting [1]) was 2.1 nM; on Human recombinant MMP-9 (setting [1]), 5650 nM. Besides, at Human recombinant MMP-2 (setting [2]), the Ki was found to be 413 nM.
`O=C(NO)C1(S(=O)(=O)c2ccc(OCCc3cccc(-c4ccccn4)c3)cc2)CCOCC1` [Example 40]: the values for the half-inhibitory concentration (IC50) at Human recombinant MMP-13 (setting [1]) and at Human recombinant MMP-9 (setting [1]) were 0.5 nM and 413 nM, respectively. Moreover, the Ki at Human recombinant MMP-2 (setting [2]) was 216 nM.
For `CCN1CCC(C(=O)NO)(S(=O)(=O)c2ccc(OCCCc3nc(-c4ccc(OC(F)(F)F)cc4)no3)cc2)CC1` [Example 41, 1-ethyl-N-hydroxy 4-{[4-(3-{3-[4-(trifluoromethoxy)phenyl]-1,2,4-oxadiazol-5-yl}propoxy)phenyl]sulfonyl}piperidine-4-carboxamide Hydrochloride], the IC50 on Human recombinant MMP-13 (setting [1]) came out at 2 nM; on Human recombinant MMP-9 (setting [1]) it was 1600 nM. On Human recombinant MMP-2 (setting [2]), the Ki worked out at 415 nM.
With `COCCN1CCC(C(=O)NO)(S(=O)(=O)c2ccc(OCCCc3nc(-c4ccc(OC(F)(F)F)cc4)no3)cc2)CC1` [Example 42], the IC50 on Human recombinant MMP-13 (setting [1]) amounted to 0.3 nM; at Human recombinant MMP-9 (setting [1]), 382 nM. The Ki at Human recombinant MMP-2 (setting [2]) worked out at 186 nM.
`CCN1CCC(C(=O)NO)(S(=O)(=O)c2ccc(OCCCc3cccc(-c4ccccc4)c3)cc2)CC1` [Example 46]: the figures for the half-inhibitory concentration (IC50) on Human recombinant MMP-13 (setting [1]) and on Human recombinant MMP-9 (setting [1]) were 3.1 nM and 1970 nM, respectively. In addition, the Ki on Human recombinant MMP-2 (setting [2]) turned out to be 786 nM.
The like results for `COCCN1CCC(C(=O)NO)(S(=O)(=O)c2ccc(OCCCn3nnc(-c4ccc(OC(F)(F)F)cc4)n3)cc2)CC1` [Example 48] were, in that order, 0.2 nM, 4450 nM and 228 nM.
With `O=C(NO)C1(S(=O)(=O)c2ccc(OCCCn3nnc(-c4ccc(OC(F)(F)F)cc4)n3)cc2)CCN(C2CC2)CC1` [Example 49], the figures for the IC50 at Human recombinant MMP-13 (setting [1]) and on Human recombinant MMP-9 (setting [1]) were 0.3 nM and 4060 nM, respectively. For the same compound, at Human recombinant MMP-2 (setting [2]), the Ki was found to be 440 nM.
Consider `O=C(NO)C1(S(=O)(=O)c2ccc(OCCCc3nc(-c4ccc(OC(F)(F)F)cc4)no3)cc2)CCN(C2CC2)CC1` [Example 51, 1-cyclopropyl-N-hydroxy-4-{[4-(3-{3-[4-(trifluoromethoxy)phenyl]-1,2,4-oxadiazol-5-yl}propoxy)phenyl]sulfonyl}piperidine-4-carboxamide Hydrochloride], for which the IC50 was 0.2 nM at Human recombinant MMP-13 (setting [1]) and 7980 nM at Human recombinant MMP-9 (setting [1]). For the same compound, on Human recombinant MMP-2 (setting [2]), the Ki stood at 93.7 nM.
The like results for `O=C(NO)C1(S(=O)(=O)c2ccc(OCCCn3nnc(-c4ccc(OC(F)(F)F)cc4)n3)cc2)CCN(CC2CC2)CC1` [Example 53] were, in that order, 1 nM, 75.5 nM and 697 nM.
Regarding `CC(C)C(=O)c1cccc(CCCOc2ccc(S(=O)(=O)C3(C(=O)NO)CCOCC3)cc2)c1` [Example 95], the results for the concentration for half-maximal inhibition (IC50) on Human recombinant MMP-13 (value outside parenthesis) and at Human recombinant MMP-9 (value outside parenthesis) were 2.7 nM and 1200 nM, respectively. The Ki on Human recombinant MMP-2 (value in parenthesis) is 149 nM.
The like results for `O=C(NO)C1(S(=O)(=O)c2ccc(OCCCc3cccc(Cc4ccccc4)c3)cc2)CCOCC1` [Example 98] were, in that order, 1.8 nM, 2420 nM and 625 nM.
The like results for `O=C(NO)C1(S(=O)(=O)c2ccc(OCCc3cccc(-c4ccncc4)c3)cc2)CCOCC1` [Example 113] were, in that order, 0.2 nM, 1980 nM and 42.3 nM.
Consider `O=C(NO)C1(S(=O)(=O)c2ccc(OCCc3cccc(-c4ccccc4F)c3)cc2)CCOCC1` [Example 115], for which the half-maximal inhibitory concentration (IC50) was 0.9 nM at Human recombinant MMP-13 (value outside parenthesis) and more than 10000 nM at Human recombinant MMP-9 (value outside parenthesis). The Ki on Human recombinant MMP-2 (value in parenthesis) turned out to be 807 nM.
The like results for `O=C(NO)C1(S(=O)(=O)c2ccc(OCCc3cccc(-c4ccc(F)cc4)c3)cc2)CCOCC1` [Example 123] were, in that order, 1.4 nM, more than 10000 nM and 793 nM.
The like results for `O=C(NO)C1(S(=O)(=O)c2ccc(OCCc3cccc(-c4cccnc4)c3)cc2)CCOCC1` [Example 125] were, in that order, 0.2 nM, 963 nM and 51.3 nM.
The like results for `Cc1ccc(-c2cccc(CCOc3ccc(S(=O)(=O)C4(C(=O)NO)CCOCC4)cc3)c2)cc1` [Example 127] were, in that order, 5.5 nM, more than 10000 nM and 2160 nM.
Consider `O=C(NO)C1(S(=O)(=O)c2ccc(OCCCc3cccc(-c4ccc(F)cc4)c3)cc2)CCN(C2CC2)CC1` [Example 139], for which the results for the 50% inhibitory concentration (IC50) on Human recombinant MMP-13 (value outside parenthesis) and on Human recombinant MMP-9 (value outside parenthesis) were 0.4 nM and 4510 nM, respectively. The Ki at Human recombinant MMP-2 (value in parenthesis) turned out to be 1410 nM.
The like results for `COCCN1CCC(C(=O)NO)(S(=O)(=O)c2ccc(OCCCc3cccc(-c4ccc(F)cc4)c3)cc2)CC1` [Example 140] were, in that order, 0.5 nM, 1690 nM and 708 nM.
The like results for `O=C(NO)C1(S(=O)(=O)c2ccc(OCCCc3cccc(-c4cccnc4)c3)cc2)CCOCC1` [Example 150] were, in that order, 0.6 nM, 530 nM and 159 nM.
The like results for `COCCN1CCC(C(=O)NO)(S(=O)(=O)c2ccc(OCCCc3nc(-c4ccccc4OC(F)(F)F)no3)cc2)CC1` [Example 152] were, in that order, 11.8 nM, 72.3 nM and 149 nM.
On to `O=C(NO)C1(S(=O)(=O)c2ccc(OCCCc3cccc(Br)c3)cc2)CCOCC1` [Example 154], for which the 50% inhibitory concentration (IC50) on Human recombinant MMP-13 (value outside parenthesis) came out at 0.8 nM; at Human recombinant MMP-9 (value outside parenthesis), 111 nM. Besides, the Ki at Human recombinant MMP-2 (value in parenthesis) stood at 33.9 nM.
The like results for `CCc1ccccc1-c1noc(CCCOc2ccc(S(=O)(=O)C3(C(=O)NO)CCN(CCOC)CC3)cc2)n1` [Example 155] were, in that order, 9.7 nM, 1170 nM and 37.9 nM.
The like results for `O=C(NO)C1(S(=O)(=O)c2ccc(OCCOc3cccc(-c4ccccc4)c3)cc2)CCOCC1` [Example 157] were, in that order, 3.5 nM, 2470 nM and 419 nM.
